# Measurements taken from ChEMBL document CHEMBL1135623, “Synthesis and pharmacological evaluation of 1-[(1,2-diphenyl-1H-4-imidazolyl)methyl]-4-phenylpiperazines with clozapine-like mixed activities at dopamine D(2), serotonin, and GABA(A) receptors” (J Med Chem, 2002).
# Experiments:
# [1] = molecular target: T1, 5-hydroxytryptamine receptor 1A (Rattus norvegicus, UniProt P19327); assay: In vitro binding affinity for serotonin 5-hydroxytryptamine 1A receptor fof rat cerebral cortex using [3H]8-OH-DPAT as radioligand; type: tissue-based
# T1 sequence (P19327 whole entry): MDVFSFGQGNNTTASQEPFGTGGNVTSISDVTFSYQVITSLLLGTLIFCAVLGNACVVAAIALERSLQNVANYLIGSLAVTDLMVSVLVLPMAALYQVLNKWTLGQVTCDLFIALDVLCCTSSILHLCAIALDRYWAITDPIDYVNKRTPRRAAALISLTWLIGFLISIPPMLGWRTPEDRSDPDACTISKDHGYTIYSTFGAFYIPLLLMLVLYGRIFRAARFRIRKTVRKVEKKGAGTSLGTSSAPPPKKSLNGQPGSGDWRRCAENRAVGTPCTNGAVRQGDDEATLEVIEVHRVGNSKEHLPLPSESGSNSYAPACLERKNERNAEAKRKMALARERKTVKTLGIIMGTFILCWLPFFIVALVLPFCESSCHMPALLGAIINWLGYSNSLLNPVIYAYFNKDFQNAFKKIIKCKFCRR
# [2] = molecular target: 5-hydroxytryptamine receptor 2A (Rattus norvegicus, UniProt P14842); assay: In vitro binding affinity for serotonin 5-hydroxytryptamine 2A receptor of rat cerebral cortex using [3H]ketanserin as radioligand; type: tissue-based
# Sequence of 5-hydroxytryptamine receptor 2A (P14842 whole entry): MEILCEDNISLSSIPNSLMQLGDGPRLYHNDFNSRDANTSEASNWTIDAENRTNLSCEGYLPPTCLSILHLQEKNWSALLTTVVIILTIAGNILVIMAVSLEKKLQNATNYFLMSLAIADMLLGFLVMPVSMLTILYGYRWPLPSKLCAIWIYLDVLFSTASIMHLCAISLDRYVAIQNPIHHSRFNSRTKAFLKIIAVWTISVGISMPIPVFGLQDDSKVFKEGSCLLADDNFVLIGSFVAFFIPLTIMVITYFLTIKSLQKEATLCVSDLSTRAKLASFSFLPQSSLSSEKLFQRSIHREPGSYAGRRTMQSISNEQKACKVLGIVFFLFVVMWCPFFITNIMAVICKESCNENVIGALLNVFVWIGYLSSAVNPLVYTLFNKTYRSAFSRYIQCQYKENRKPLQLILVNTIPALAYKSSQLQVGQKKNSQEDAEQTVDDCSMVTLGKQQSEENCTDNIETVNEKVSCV
Compound,IC50 [1] [µM],IC50 [2] [µM]
Fc1ccc(N2CCN(Cc3cn(-c4ccccc4)c(-c4ccccc4)n3)CC2)cc1,0.806,0.501
Clc1cccc(N2CCN(Cc3cn(-c4ccccc4)c(-c4ccccc4)n3)CC2)c1,0.166,0.717
CCOc1ccccc1N1CCN(Cc2cn(-c3ccc(F)cc3)c(-c3ccc(F)cc3)n2)CC1,0.0519,–
c1ccc(-c2nc(CN3CCN(c4ccccc4)CC3)cn2-c2ccccc2)cc1,2.7,> 10
FC(F)(F)c1ccc(N2CCN(Cc3cn(-c4ccccc4)c(-c4ccccc4)n3)CC2)cc1,0.224,1.51
Fc1ccc(-c2nc(CN3CCN(c4ccccc4)CC3)cn2-c2ccc(F)cc2)cc1,0.525,0.783
COc1ccc(N2CCN(Cc3cn(-c4ccccc4)c(-c4ccccc4)n3)CC2)cc1,8.44,1.92
FC(F)(F)c1cccc(N2CCN(Cc3cn(-c4ccccc4)c(-c4ccccc4)n3)CC2)c1,0.206,2.13
COc1cccc(N2CCN(Cc3cn(-c4ccccc4)c(-c4ccccc4)n3)CC2)c1,0.271,2.34
c1ccc(-c2nc(CN3CCN(c4ccccn4)CC3)cn2-c2ccccc2)cc1,0.197,2.02
CN1CCN(Cc2cn(-c3ccccc3)c(-c3ccccc3)n2)CC1,–,> 10
Clc1ccc(N2CCN(Cc3cn(-c4ccccc4)c(-c4ccccc4)n3)CC2)cc1,1.89,0.315
c1ccc(CN2CCN(Cc3cn(-c4ccccc4)c(-c4ccccc4)n3)CC2)cc1,1.13,2.17

# More lines, in order of falling IC50 [2], values ahead:
IC50 [1] [µM],IC50 [2] [µM],Compound
0.171,0.259,COc1ccccc1N1CCN(Cc2cn(-c3ccc(F)cc3)c(-c3ccc(F)cc3)n2)CC1
0.0569,0.172,CCOc1ccccc1N1CCN(Cc2cn(-c3ccccc3)c(-c3ccccc3)n2)CC1
0.255,0.142,Clc1ccccc1N1CCN(Cc2cn(-c3ccccc3)c(-c3ccccc3)n2)CC1
–,0.131,COc1ccccc1N1CCN(Cc2cn(-c3ccccc3)c(-c3ccccc3)n2)CC1
0.332,0.0253,Fc1ccccc1N1CCN(Cc2cn(-c3ccccc3)c(-c3ccccc3)n2)CC1
–,0.0148,CN(C)CCCSc1ccccc1NC(=O)/C=C/c1ccccc1 [CINANSERIN]
